Results as given in article PMC10257182, “Discovery of senolytics using machine learning” (Nature Communications, 2023).
“And” between values parts separate entries of the source, which are not always exact repeats. Equal entries are not always repeated.

Tests used:
Format in all cases: cell-based, human
[1] = test system: non-senescent control A549 cells; experiment: Nuclei count senolytic assay, TIS model, non-senescent control cells; details: Control cells, mean
Summary of the method: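 Read-out is the imaged count of Hoechst 33342-stained nuclei (2 μg/ml final) in fixed, permeabilised A549 cells. Senescent cells had received etoposide at 100 μM for 48 h plus three days recovery in normal media. Compound exposure lasted 72 h across a 10-point […] range, 10 μM to 10 nM.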

[2] = test system: non-senescent control IMR90 ER:RAS cells; experiment: Nuclei count (Hoechst, high content imaging) senolytic assay, OIS model, non-senescent control cells; details: for Mean % Cell Survival: mean n=3 (Fig 3C)
Summary of the method: (§1)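 Readout is automated image-based counting of Hoechst-stained nuclei per well, with loss of cells relative to untreated wells taken as cell death. Senescent (4-OHT, 100 nM) and control IMR90 ER:RAS cells were exposed to compounds for 72 h at 10 nM to 10 μM final.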

[3] = test system: senescent IMR90 ER:RAS cells (4-OHT-induced); experiment: Nuclei count (Hoechst, high content imaging) senolytic assay, oncogene-induced senescence (OIS) model, senescent cells; details: for Mean % Cell Survival: mean n=3 (Fig 3C)
Summary of the method: as §1

For `C=Cc1c(C)c2cc3nc(cc4[nH]c(cc5nc(cc1[nH]2)C(C)=C5CCC(=O)O)c(CCC(=O)OC)c4C)[C@@]1(C)C3=CC=C(C(=O)OC)[C@H]1C(=O)OC` [Verteporfin, verteporfin, reference compound], the “Mean % Cell Survival” value ([1]; log (dose) [M] -5) was 113.771%, the “Mean % Cell Survival” value ([1]; log (dose) [M] -5.33) was 108.79% and the “Mean % Cell Survival” value ([1]; log (dose) [M] -5.66) was 94.7872%. The “Mean % Cell Survival” value ([1]; log (dose) [M] -6) was 92.365%, the “Mean % Cell Survival” value ([1]; log (dose) [M] -6.33) was 96.0501% and the “Mean % Cell Survival” value ([1]; log (dose) [M] -6.66) was 101.194%. For the same molecule, the “Mean % Cell Survival” value ([1]; log (dose) [M] -7) was 90.846%, the “Mean % Cell Survival” value ([1]; log (dose) [M] -7.33) was 108.359% and the “Mean % Cell Survival” value ([1]; log (dose) [M] -7.66) was 100.589%. For the same molecule, the “Mean % Cell Survival” value ([1]; log (dose) [M] -8) was 97.9379%, the “% Cell Survival” value ([2]; Control cells, log (dose) [M] -5, individual replicates, SUP FIG 4C) was 101.159% and 129.718% and 89.9175% and the “% Cell Survival” value ([2]; Control cells, log (dose) [M] -5.33, individual replicates, SUP FIG 4C) was 94.2029% and 128.701% and 95.0504%. For the same molecule, the “% Cell Survival” value ([2]; Control cells, log (dose) [M] -5.66, individual replicates, SUP FIG 4C) was 94.8792% and 127.571% and 91.1091%, the “% Cell Survival” value ([2]; Control cells, log (dose) [M] -6, individual replicates, SUP FIG 4C) was 109.082% and 120% and 89.2759% and the “% Cell Survival” value ([2]; Control cells, log (dose) [M] -6.33, individual replicates, SUP FIG 4C) was 132.367% and 79.661% and 117.324%. The “% Cell Survival” value ([2]; Control cells, log (dose) [M] -6.66, individual replicates, SUP FIG 4C) was 84.5411% and 110.056% and 78.5518%, the “% Cell Survival” value ([2]; Control cells, log (dose) [M] -7, individual replicates, SUP FIG 4C) was 102.222% and 109.492% and 85.1512% and the “% Cell Survival” value ([2]; Control cells, log (dose) [M] -7.33, individual replicates, SUP FIG 4C) was 97.1981% and 115.141% and 84.143%. The “% Cell Survival” value ([2]; Control cells, log (dose) [M] -7.66, individual replicates, SUP FIG 4C) was 102.705% and 116.158% and 105.408%, the “% Cell Survival” value ([2]; Control cells, log (dose) [M] -8, individual replicates, SUP FIG 4C) was 88.6957% and 107.684% and 93.9505% and the “Mean % Cell Survival” value ([2]; Control, log (dose) [M] -5, 72 h) was 106.931%. For the same molecule, the “Mean % Cell Survival” value ([2]; Control, log (dose) [M] -5.33, 72 h) was 105.985%, the “Mean % Cell Survival” value ([2]; Control, log (dose) [M] -5.66, 72 h) was 104.52% and the “Mean % Cell Survival” value ([2]; Control, log (dose) [M] -6, 72 h) was 106.119%. The “Mean % Cell Survival” value ([2]; Control, log (dose) [M] -6.33, 72 h) was 109.784%, the “Mean % Cell Survival” value ([2]; Control, log (dose) [M] -6.66, 72 h) was 91.0498% and the “Mean % Cell Survival” value ([2]; Control, log (dose) [M] -7, 72 h) was 98.955%. For the same molecule, the “Mean % Cell Survival” value ([2]; Control, log (dose) [M] -7.33, 72 h) was 98.8274%, the “Mean % Cell Survival” value ([2]; Control, log (dose) [M] -7.66, 72 h) was 108.09% and the “Mean % Cell Survival” value ([2]; Control, log (dose) [M] -8, 72 h) was 96.7766%. The “% Cell Survival” value ([2]; Control, log (dose) [M] -5) was 103.991% and 103.701% and 133.622%, the “% Cell Survival” value ([2]; Control, log (dose) [M] -5.33) was 95.6459% and 122.354% and 108.369% and the “% Cell Survival” value ([2]; Control, log (dose) [M] -5.66) was 83.672% and 98.7417% and 101.948%. For the same molecule, the “% Cell Survival” value ([2]; Control, log (dose) [M] -6) was 86.9376% and 90.2295% and 99.9278%, the “% Cell Survival” value ([2]; Control, log (dose) [M] -6.33) was 101.524% and 93.2642% and 93.3622% and the “% Cell Survival” value ([2]; Control, log (dose) [M] -6.66) was 98.4035% and 102.221% and 102.958%. The “% Cell Survival” value ([2]; Control, log (dose) [M] -7) was 87.0827% and 92.5981% and 92.8571%, the “% Cell Survival” value ([2]; Control, log (dose) [M] -7.33) was 115.893% and 95.1147% and 114.069% and the “% Cell Survival” value ([2]; Control, log (dose) [M] -7.66) was 103.991% and 94.8187% and 102.958%. For the same molecule, the “% Cell Survival” value ([2]; Control, log (dose) [M] -8) was 101.306% and 100.444% and 92.0635%, the “% Cell Survival” value ([3]; Senescent cells, log (dose) [M] -5, individual replicates, SUP FIG 4C) was 93.9435% and 91.1111% and 111.269% and the “% Cell Survival” value ([3]; Senescent cells, log (dose) [M] -5.33, individual replicates, SUP FIG 4C) was 81.5612% and 99.085% and 87.8238%. For the same molecule, the “% Cell Survival” value ([3]; Senescent cells, log (dose) [M] -5.66, individual replicates, SUP FIG 4C) was 114.536% and 91.2418% and 98.8342%, the “% Cell Survival” value ([3]; Senescent cells, log (dose) [M] -6, individual replicates, SUP FIG 4C) was 68.7752% and 100.915% and 109.974% and the “% Cell Survival” value ([3]; Senescent cells, log (dose) [M] -6.33, individual replicates, SUP FIG 4C) was 85.8681% and 55.5556% and 108.549%. The “% Cell Survival” value ([3]; Senescent cells, log (dose) [M] -6.66, individual replicates, SUP FIG 4C) was 84.253% and 107.32% and 95.2073%, the “% Cell Survival” value ([3]; Senescent cells, log (dose) [M] -7, individual replicates, SUP FIG 4C) was 86.541% and 87.8431% and 90.544% and the “% Cell Survival” value ([3]; Senescent cells, log (dose) [M] -7.33, individual replicates, SUP FIG 4C) was 95.5585% and 120.915% and 93.9119%. For the same molecule, the “% Cell Survival” value ([3]; Senescent cells, log (dose) [M] -7.66, individual replicates, SUP FIG 4C) was 98.3849% and 123.268% and 87.8238%, the “% Cell Survival” value ([3]; Senescent cells, log (dose) [M] -8, individual replicates, SUP FIG 4C) was 86.541% and 113.464% and 76.6839% and the “Mean % Cell Survival” value ([3]; Senescent, log (dose) [M] -5, 72 h) was 98.7747%. The “Mean % Cell Survival” value ([3]; Senescent, log (dose) [M] -5.33, 72 h) was 89.49%, the “Mean % Cell Survival” value ([3]; Senescent, log (dose) [M] -5.66, 72 h) was 101.537% and the “Mean % Cell Survival” value ([3]; Senescent, log (dose) [M] -6, 72 h) was 93.2215%. The “Mean % Cell Survival” value ([3]; Senescent, log (dose) [M] -6.33, 72 h) was 83.3243%, the “Mean % Cell Survival” value ([3]; Senescent, log (dose) [M] -6.66, 72 h) was 95.5935% and the “Mean % Cell Survival” value ([3]; Senescent, log (dose) [M] -7, 72 h) was 88.3094%. The “Mean % Cell Survival” value ([3]; Senescent, log (dose) [M] -7.33, 72 h) was 103.462%, the “Mean % Cell Survival” value ([3]; Senescent, log (dose) [M] -7.66, 72 h) was 103.159% and the “Mean % Cell Survival” value ([3]; Senescent, log (dose) [M] -8, 72 h) was 92.2297%. The “% Cell Survival” value ([3]; Senescent, log (dose) [M] -5) was 113.825% and 103.66% and 137.931%, the “% Cell Survival” value ([3]; Senescent, log (dose) [M] -5.33) was 79.9635% and 100.131% and 115.557% and the “% Cell Survival” value ([3]; Senescent, log (dose) [M] -5.66) was 102.923% and 109.085% and 134.403%. The “% Cell Survival” value ([3]; Senescent, log (dose) [M] -6) was 99.1474% and 91.7647% and 157.418%, the “% Cell Survival” value ([3]; Senescent, log (dose) [M] -6.33) was 98.8429% and 106.993% and 136.808% and the “% Cell Survival” value ([3]; Senescent, log (dose) [M] -6.66) was 92.57% and 116.536% and 113.873%. The “% Cell Survival” value ([3]; Senescent, log (dose) [M] -7) was 103.898% and 73.5294% and 123.657%, the “% Cell Survival” value ([3]; Senescent, log (dose) [M] -7.33) was 62.363% and 86.2092% and 118.605% and the “% Cell Survival” value ([3]; Senescent, log (dose) [M] -7.66) was 100.061% and 91.4379% and 129.27%. For the same molecule, the “% Cell Survival” value ([3]; Senescent, log (dose) [M] -8) was 96.6504% and 87.3856% and 116.84%.
